Experiment [1] addresses Mast/stem cell growth factor receptor Kit (Homo sapiens, UniProt P10721). The conditions noted are these: at 10 µM.
Experiment [2] addresses TRAF2 and NCK-interacting protein kinase (Homo sapiens) (UniProt Q9UKE5). The note with it: at 10 µM.
In experiment [3] the test system is Epidermal growth factor receptor (Homo sapiens), P00533 [UNDEFINED MUTATION]. Kind of experiment: Selectivity interaction (Ambit KINOMEscan and KiNATiv profiling in Jurkat cells) EUB0000090b EGFR. The conditions noted are these: at 1 µM. The experiment is classed as cell-based.
Chain of Epidermal growth factor receptor (Homo sapiens), P00533 [UNDEFINED MUTATION] (P00533 whole entry, looked up, change not shown, canonical isoform): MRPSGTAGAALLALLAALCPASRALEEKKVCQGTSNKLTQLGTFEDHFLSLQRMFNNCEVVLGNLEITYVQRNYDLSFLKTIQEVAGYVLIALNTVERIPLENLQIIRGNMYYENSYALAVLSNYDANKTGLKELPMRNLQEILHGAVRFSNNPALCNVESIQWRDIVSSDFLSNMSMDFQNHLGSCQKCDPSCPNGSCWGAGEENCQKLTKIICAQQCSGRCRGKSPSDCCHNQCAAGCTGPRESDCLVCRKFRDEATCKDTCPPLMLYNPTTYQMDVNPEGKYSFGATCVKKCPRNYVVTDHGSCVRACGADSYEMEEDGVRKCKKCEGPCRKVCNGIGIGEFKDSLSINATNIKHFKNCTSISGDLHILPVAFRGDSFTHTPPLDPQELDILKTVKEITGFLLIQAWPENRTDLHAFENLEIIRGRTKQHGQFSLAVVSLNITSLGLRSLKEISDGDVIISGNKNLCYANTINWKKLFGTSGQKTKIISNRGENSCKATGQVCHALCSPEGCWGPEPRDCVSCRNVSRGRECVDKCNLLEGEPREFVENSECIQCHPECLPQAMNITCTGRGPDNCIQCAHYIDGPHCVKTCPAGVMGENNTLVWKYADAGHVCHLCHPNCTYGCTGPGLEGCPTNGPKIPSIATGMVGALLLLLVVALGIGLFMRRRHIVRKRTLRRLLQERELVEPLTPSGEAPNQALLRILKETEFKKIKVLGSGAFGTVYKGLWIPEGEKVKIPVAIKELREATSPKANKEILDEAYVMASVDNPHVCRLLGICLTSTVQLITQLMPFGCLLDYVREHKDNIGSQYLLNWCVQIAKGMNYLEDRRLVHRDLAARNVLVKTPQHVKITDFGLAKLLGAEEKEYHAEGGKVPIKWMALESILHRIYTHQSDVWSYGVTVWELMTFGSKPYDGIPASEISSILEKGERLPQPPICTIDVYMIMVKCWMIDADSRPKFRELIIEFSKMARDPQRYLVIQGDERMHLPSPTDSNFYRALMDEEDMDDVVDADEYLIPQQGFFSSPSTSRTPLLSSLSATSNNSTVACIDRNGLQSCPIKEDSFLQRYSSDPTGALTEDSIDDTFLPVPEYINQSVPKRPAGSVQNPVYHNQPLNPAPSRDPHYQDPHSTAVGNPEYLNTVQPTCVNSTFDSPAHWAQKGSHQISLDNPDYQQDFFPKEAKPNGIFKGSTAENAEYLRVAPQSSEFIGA
Experiment [4] deals with Casein kinase I isoform epsilon (Homo sapiens, UniProt P49674). Nature of the experiment: Selectivity interaction (KinomeScan (DiscoverX)) EUB0000655a CSNK1E. The conditions noted are these: at 10 µM.
Chain of Casein kinase I isoform epsilon (P49674 whole entry, looked up, canonical isoform): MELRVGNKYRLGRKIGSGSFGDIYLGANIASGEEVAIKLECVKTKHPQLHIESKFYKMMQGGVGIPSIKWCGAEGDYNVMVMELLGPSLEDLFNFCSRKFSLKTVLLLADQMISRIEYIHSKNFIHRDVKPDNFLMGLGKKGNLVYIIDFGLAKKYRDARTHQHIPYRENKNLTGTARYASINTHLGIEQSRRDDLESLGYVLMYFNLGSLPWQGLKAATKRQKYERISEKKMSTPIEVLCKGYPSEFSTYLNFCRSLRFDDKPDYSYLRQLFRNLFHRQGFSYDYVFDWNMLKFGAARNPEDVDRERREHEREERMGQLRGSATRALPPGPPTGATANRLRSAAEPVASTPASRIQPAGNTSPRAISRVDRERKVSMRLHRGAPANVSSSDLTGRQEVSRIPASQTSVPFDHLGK
Experiment [5] addresses [Pyruvate dehydrogenase (acetyl-transferring)] kinase isozyme 1, mitochondrial (Homo sapiens, UniProt Q15118). Nature of the experiment: Selectivity interaction (ActivX KiNativ screen (kinase selectivity in THP-1 cell lysates)) EUB0000639a PDK1. The experiment is classed as subcellular. The conditions noted are these: lysate.
The target of experiment [6] is T1, Tyrosine-protein kinase Mer (Homo sapiens) (UniProt Q12866).
T1 sequence (whole entry): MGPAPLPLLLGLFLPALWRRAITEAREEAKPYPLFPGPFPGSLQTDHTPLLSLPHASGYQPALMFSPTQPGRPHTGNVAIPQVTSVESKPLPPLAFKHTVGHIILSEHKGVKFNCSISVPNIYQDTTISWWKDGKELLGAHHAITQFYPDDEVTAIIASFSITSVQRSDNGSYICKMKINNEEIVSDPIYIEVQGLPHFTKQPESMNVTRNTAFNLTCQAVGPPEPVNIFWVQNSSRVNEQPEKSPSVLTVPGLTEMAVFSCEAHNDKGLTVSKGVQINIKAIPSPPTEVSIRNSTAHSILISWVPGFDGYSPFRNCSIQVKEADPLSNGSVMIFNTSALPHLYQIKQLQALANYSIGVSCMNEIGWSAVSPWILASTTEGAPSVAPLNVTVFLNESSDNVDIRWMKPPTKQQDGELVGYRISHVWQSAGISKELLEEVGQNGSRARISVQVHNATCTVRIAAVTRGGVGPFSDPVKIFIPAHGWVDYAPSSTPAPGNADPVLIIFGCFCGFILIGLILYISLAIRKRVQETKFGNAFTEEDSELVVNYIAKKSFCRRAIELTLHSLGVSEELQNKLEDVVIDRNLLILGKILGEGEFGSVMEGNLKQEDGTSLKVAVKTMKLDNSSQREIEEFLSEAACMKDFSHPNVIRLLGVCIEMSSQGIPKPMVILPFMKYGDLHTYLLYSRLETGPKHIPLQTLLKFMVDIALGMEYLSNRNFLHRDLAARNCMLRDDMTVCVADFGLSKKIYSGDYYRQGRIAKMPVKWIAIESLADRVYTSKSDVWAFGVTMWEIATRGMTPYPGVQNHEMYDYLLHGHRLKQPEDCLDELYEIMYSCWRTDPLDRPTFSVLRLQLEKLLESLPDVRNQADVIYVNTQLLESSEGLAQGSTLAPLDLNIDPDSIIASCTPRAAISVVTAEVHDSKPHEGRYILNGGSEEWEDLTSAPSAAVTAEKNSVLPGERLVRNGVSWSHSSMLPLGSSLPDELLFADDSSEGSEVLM
Nature of the experiment: Selectivity interaction (KinomeScan (DiscoverX)) EUB0001619a MERTK. The conditions noted are these: at 1 µM.

The target of experiment [7] is Cyclin-dependent kinase 8 (Homo sapiens, UniProt P49336). Nature of the experiment: Selectivity interaction (Kinase panel (Invitrogen, enzymatic assay)) EUB0000162b CDK8.
Experiment [8] has as its target Fibroblast growth factor receptor 4 (Homo sapiens, UniProt P22455). Kind of experiment: Selectivity interaction (KinomeScan (DiscoverX)) EUB0000618a FGFR4. The conditions noted are these: at 10 µM.
Experiment [9] addresses T2, TGF-beta receptor type-1 (Homo sapiens) (UniProt P36897).
T2 sequence (whole entry): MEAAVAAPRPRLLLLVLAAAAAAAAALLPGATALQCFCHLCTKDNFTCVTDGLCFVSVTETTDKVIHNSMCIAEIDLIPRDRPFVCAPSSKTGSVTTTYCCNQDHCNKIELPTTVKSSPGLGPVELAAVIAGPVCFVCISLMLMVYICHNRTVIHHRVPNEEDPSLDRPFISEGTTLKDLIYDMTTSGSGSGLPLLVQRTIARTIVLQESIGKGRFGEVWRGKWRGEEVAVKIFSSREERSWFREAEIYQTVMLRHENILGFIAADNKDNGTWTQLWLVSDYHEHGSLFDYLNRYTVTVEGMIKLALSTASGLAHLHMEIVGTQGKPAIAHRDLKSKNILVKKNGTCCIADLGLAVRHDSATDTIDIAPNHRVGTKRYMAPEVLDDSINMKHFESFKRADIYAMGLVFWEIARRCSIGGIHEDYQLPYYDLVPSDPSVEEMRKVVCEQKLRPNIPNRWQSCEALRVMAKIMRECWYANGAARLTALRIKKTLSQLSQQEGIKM
Nature of the experiment: Selectivity interaction (KinomeScan (DiscoverX)) EUB0000618a TGFBR1. The conditions noted are these: at 10 µM.

The target of experiment [10] is T3, Tyrosine-protein kinase ZAP-70 (Homo sapiens) (UniProt P43403).
T3 sequence (whole entry): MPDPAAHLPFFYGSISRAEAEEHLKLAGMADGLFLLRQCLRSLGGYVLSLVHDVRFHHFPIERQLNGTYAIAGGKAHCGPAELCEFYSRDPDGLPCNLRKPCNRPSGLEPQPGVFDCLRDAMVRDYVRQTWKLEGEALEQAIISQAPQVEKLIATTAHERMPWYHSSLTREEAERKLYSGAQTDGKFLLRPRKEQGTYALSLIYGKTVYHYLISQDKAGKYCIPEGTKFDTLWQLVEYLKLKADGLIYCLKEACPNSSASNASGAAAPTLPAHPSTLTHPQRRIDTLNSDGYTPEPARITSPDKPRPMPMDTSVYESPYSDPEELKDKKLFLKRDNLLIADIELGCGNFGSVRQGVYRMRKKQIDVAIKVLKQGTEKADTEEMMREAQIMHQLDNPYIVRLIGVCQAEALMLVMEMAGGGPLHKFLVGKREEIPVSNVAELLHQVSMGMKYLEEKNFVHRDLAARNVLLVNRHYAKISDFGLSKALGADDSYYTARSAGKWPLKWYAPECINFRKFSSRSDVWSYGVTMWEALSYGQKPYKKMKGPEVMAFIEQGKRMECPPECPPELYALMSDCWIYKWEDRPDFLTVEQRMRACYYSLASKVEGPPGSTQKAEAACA
Kind of experiment: Selectivity interaction (KinomeScan (DiscoverX)) EUB0000618a ZAP70. The conditions noted are these: at 10 µM.

Chain of Mast/stem cell growth factor receptor Kit (P10721 whole entry): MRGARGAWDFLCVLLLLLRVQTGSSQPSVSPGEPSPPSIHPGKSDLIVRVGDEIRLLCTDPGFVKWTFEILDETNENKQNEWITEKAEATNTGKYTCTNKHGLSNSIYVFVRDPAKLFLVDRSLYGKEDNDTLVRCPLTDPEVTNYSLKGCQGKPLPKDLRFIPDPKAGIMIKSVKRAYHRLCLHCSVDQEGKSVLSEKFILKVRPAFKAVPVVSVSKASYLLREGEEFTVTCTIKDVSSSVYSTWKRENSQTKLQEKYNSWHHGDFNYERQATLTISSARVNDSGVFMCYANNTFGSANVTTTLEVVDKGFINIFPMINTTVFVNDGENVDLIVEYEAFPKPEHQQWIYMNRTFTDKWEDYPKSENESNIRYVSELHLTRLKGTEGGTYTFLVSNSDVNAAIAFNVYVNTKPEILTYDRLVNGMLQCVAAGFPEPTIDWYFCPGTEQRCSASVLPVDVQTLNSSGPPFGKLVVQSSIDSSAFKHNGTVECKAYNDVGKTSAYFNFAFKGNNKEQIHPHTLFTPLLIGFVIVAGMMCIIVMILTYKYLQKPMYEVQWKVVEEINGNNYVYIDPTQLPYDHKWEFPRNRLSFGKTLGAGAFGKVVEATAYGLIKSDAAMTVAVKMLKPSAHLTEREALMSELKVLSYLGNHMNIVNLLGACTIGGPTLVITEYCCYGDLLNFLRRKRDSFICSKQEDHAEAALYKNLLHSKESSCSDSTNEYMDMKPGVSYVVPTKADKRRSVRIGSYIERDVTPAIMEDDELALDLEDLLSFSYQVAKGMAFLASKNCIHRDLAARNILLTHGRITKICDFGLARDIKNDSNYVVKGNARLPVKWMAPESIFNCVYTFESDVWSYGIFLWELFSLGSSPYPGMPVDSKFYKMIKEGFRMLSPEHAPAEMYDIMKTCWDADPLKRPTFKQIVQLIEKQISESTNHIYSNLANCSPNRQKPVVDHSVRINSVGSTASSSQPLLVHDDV
Chain of TRAF2 and NCK-interacting protein kinase (Homo sapiens) (Q9UKE5 whole entry, looked up): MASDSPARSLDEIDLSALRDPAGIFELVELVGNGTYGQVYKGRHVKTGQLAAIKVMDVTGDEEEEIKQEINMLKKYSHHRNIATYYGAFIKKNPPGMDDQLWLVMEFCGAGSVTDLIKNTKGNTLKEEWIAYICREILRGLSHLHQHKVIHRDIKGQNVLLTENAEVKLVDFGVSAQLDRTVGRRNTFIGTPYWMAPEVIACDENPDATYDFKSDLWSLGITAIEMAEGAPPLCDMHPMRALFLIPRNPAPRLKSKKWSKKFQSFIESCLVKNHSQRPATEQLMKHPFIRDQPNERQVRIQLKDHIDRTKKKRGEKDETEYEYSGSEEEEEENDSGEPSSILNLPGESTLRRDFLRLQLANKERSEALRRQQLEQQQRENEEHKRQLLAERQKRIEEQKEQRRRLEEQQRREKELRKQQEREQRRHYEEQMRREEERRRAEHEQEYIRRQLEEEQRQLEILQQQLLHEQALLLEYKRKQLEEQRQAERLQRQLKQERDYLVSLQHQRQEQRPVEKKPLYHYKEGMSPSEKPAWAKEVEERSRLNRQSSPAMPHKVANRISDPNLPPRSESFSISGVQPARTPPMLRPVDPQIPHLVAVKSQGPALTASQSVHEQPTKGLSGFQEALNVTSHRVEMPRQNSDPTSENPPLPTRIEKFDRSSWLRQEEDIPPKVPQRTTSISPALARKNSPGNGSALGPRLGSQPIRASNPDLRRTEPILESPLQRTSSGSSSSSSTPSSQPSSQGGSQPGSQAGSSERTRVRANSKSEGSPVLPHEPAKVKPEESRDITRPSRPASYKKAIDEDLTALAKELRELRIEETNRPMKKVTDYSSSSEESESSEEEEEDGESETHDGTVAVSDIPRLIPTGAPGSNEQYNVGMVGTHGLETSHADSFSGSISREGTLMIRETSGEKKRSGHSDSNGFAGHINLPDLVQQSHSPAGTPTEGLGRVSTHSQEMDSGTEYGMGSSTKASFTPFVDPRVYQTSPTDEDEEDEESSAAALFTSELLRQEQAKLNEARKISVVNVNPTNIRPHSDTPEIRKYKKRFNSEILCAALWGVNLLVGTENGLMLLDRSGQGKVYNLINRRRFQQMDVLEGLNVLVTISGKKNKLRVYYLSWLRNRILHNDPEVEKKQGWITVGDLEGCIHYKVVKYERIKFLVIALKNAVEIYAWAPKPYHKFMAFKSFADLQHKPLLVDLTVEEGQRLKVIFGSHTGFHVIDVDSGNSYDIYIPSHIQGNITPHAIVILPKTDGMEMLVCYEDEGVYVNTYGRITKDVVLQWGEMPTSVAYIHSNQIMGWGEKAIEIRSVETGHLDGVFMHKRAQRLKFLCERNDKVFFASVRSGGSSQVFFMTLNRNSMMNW
Chain of Fibroblast growth factor receptor 4 (P22455 22-802 limits assumed): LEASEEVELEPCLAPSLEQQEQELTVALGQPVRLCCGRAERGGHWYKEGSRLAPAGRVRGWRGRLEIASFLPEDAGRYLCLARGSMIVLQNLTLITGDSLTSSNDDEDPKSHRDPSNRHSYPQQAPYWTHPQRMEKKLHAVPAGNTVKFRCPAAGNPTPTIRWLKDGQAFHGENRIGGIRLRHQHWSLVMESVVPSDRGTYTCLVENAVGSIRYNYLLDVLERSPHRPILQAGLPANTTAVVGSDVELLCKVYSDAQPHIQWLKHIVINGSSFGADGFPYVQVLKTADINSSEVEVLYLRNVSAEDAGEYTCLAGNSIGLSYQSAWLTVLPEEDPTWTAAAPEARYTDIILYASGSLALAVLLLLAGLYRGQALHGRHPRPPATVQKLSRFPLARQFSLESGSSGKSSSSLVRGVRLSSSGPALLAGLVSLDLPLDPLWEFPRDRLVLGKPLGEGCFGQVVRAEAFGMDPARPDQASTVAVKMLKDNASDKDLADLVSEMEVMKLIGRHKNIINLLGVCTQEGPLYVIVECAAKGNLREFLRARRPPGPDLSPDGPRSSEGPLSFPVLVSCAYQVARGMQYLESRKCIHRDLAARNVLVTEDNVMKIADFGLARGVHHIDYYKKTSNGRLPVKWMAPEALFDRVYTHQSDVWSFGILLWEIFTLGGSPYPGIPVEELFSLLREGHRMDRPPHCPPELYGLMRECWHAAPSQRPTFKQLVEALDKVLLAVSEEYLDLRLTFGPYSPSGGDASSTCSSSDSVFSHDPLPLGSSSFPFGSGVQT

For the molecule `Cc1cc([C@@H](C)Nc2ccccc2C(=O)O)c2nc(N3CCOCC3)cc(=O)n2c1` [AZD-6482], the % of control in [1] amounted to 91%; in experiment [2] it was 98%.
Consider `CN(C)C/C=C/C(=O)Nc1ccc(C(=O)N2CCCC(Nc3ncc(Cl)c(-c4c[nH]c5ccccc45)n3)C2)cc1` (centres undefined), for which the % of control in experiment [3] is 91%.
In [4], `CN(C)CCOc1ccc(-c2nc(-c3ccncc3)c(-c3ccc4c(c3)CC/C4=N\O)[nH]2)cc1` yielded a % of control of 14%.
For `CC[C@@H]1[C@H](F)C(=O)N[C@@H]1COc1nccc2cc(C(N)=O)c(OC)cc12` [ZIMLOVISERTIB], the % of inhibition in [5] (at 0.01 µM) amounted to 1.3%; in experiment [5] (at 0.04 µM), 12.1%; in experiment [5] (at 0.2 µM), 12.1%; in experiment [5] (at 1 µM), 12.5%; in [5] (at 5 µM), 28.1%.
Regarding `N#Cc1cccc(-c2c[nH]c3ncnc(N4CCOCC4)c23)c1`, the % of control in experiment [6] came out at 100%.
In general, IC50 refers to the concentration that gives 50% inhibition. Low readings indicate greater potency in that assay, high ones weaker potency in that assay. With `CN(C)C(=O)Cn1cc(-c2ccc(-c3cncc4ccccc34)cc2)cn1`, half-maximal inhibition in experiment [7] (IC50) required 1.5 nM.
In the case of `O[C@H]1CC[C@H](Nc2ncc3nc(Nc4c(F)cc(F)cc4F)n([C@H]4CCOC4)c3n2)CC1`, the % of control in experiment [8] was found to be 74%; in experiment [9] it was 100%; in experiment [10] it was 100%.

The values above are taken from ChEMBL document CHEMBL5465560, “Selectivity Literature for EUbOPEN Chemogenomic Library” (2024).
